Counter-ions that a name gives are not always drawn.
Each molecule was assayed against T1, Rat brain protein farnesyltransferase (Rattus norvegicus, UniProt Q02293+Q04631) (assay: In vitro inhibition of protein farnesyltransferase, Amersham scintillation proximity assay with biotin-K Ras B fragment). Conditions: Inhibition of farnesyltransferase; compound at 1 × 10^−5 M (Table 1).
T1 construct: The enzyme is purified according to Reiss, Y., et al., Cell, 62: 81-88 (1990), utilizing steps one through three; from tissue; host or cells: rat brain
Format: biochemical
From the text: The ability of the compounds of the invention to inhibit protein farnesyltransferase or protein geranylgeranyltransferase can be measured according to the method of Moores, et al., J. Biol. Chem. 266: 14603 (1991) or the method of Vogt, et al., J. Biol. Chem. 270:660-664 (1995). In addition, procedures for determination of the inhibition of farnesylation of the oncogene protein Ras are described by Goldstein, et al., J. Biol. Chem., 266:15575-15578 (1991) and by Singh in U.S. Pat. No. 5,245,061.
In addition, in vitro inhibition of protein farnesyltransferase may be measured by the following procedure. Rat brain protein farnesyltransferase activity is measured using an Amersham Life Science commercial scintillation proximity assay kit and substituting a biotin-K Ras B fragment (biotin-[…]Ue-Met-CO2H), 0.1 mM final concentration, for the biotin-lamin substrate provided by Amersham. The enzyme is purified according to Reiss, Y., et al., Cell, 62: 81-88 (1990), utilizing steps one through three. […]
The % inhibition of protein farnesyltransferase was determined for representative compounds of the invention.

inhibition at 10 µM [%] | Compound
93 | CSCC[C@H](NC(=O)c1ccc(NC(=O)c2cccnc2)cc1-c1ccccc1)C(=O)O [Example 200, [4-(3-Pyridylcarbonylamino)-2-phenylbenzoyl]methionine Hydrochloride]

Same assay, conditions: Inhibition of farnesyltransferase; compound at 1 × 10^−6 M (Table 2)

Compound | % inhibition at 1 × 10^−6 M [%]
CSCC[C@H](NC(=O)c1ccc(COc2cccnc2)cc1-c1ccc(C)cc1)C(=O)O [Example 206] | 67
COc1cccc(-c2cc(COc3cccnc3)ccc2C(=O)N[C@@H](CCSC)C(=O)O)c1 [Example 208] | 98

Same assay, conditions: Inhibition of farnesyltransferase; compound at 1 × 10^−6 M (Table 2); read-out: % inhibition at 1 × 10^−6 M

Compound | inhibition at 1 µM [%]
CSCC[C@@H](NC(=O)c1ccc(CNc2cccnc2)cc1-c1ccccc1)C(=O)O (stereo in doubt) [Example 189, [4-(3-Pyridylaminomethyl)-2-phenylbenzoyl]methionine] | 88
CSCC[C@H](NC(=O)c1ccc(CNc2ccncc2)cc1-c1ccccc1)C(=O)O [Example 161, [4-(4-Pyridylaminomethyl)-2-phenylbenzoyl]methionine] | 54
CSCC[C@H](NC(=O)c1ccc(NC(=O)c2c[nH]cn2)cc1-c1ccccc1)C(=O)O [Example 168, [4-(1H-Imidazol-4-ylcarbonyl)amino-2-phenylbenzoyl]methionine Hydrochloride] | 92
CSCC[C@H](NC(=O)c1ccc(NCc2cccnc2)cc1-c1ccccc1)C(=O)O [Example 192, [4-(3-Pyridylmethylamino)-2-phenylbenzoyl]methionine] | 95
CSCC[C@H](NC(=O)c1ccc(NCc2cccnc2)cc1-c1ccccc1)C(=O)OCCC(C)C [Example 193, [4-(3-Pyridylmethylamino)-2-phenylbenzoyl]methionine Isoamyl Ester] | 4
CS(=O)(=O)CC[C@H](NC(=O)c1ccc(NC(=O)c2cccnc2)cc1-c1ccccc1)C(=O)O [Example 203, [4-(3-Pyridylcarbonylamino)-2-phenylbenzoyl]-2-amino-4-(methylsulfonyl)butanoic Acid] | 76
CSCC[C@H](NC(=O)c1ccc(COc2cccnc2)cc1-c1cccc(C)c1)C(=O)O [Example 205, [4-(3-Pyridyloxymethyl)-2-(3-methylphenyl)benzoyl]methionine] | 98
COC(=O)[C@H](CCSC)NC(=O)c1ccc(CCc2cccnc2)cc1-c1ccccc1 [Example 212, {4-[2-(Pyrid-3-yl)ethyl]-2-phenylbenzoyl}methionine Methyl Ester] | 12
CSCC[C@H](NC(=O)c1ccc(CCc2cccnc2)cc1-c1ccccc1)C(=O)O [Example 213, {4-[2-(Pyrid-3-yl)ethyl]-2-phenylbenzoyl}methionine Sodium Salt] | 98

Now from value to molecule:

inhibition at 1 µM [%] | Compound
55 | CS(=O)(=O)CC[C@H](NC(=O)c1ccc(C(O)C(O)c2cccnc2)cc1-c1ccccc1)C(=O)O (mixture of isomers) [Example 221, N-{4-[2-(Pyrid-3-yl)-1,2-dihydroxyethyl]-2-phenylbenzoyl]-2-amino-4-(methylsulfonyl)butanoic Acid]
22 | COC(=O)[C@H](CCS(C)(=O)=O)NC(=O)c1ccc(CNc2cccnc2)cc1-c1ccccc1 (stereo in doubt) [Example 238, N-[4-(3-Pyridylaminomethyl)-2-phenylbenzoyl]-2-amino-4-(methylsulfonyl)butanoic Acid Methyl Ester]
2 | COC(=O)[C@H](CCSC)N(C)C(=O)c1ccc(CNc2cccnc2)cc1-c1ccccc1 [Example 158, [4-(3-Pyridylaminomethylene)-2-phenylbenzoyl]-N-methylmetionine Methyl Ester]
84 | CSCC[C@@H](C(=O)O)N(C)C(=O)c1ccc(CNc2cccnc2)cc1-c1ccccc1 [Example 159, [4-(3-Pyridylaminomethyl)-2-phenylbenzoyl]-N-methylmethionine]
30 | CSCC[C@H](NC(=O)c1ccc(CNc2ccccn2)cc1-c1ccccc1)C(=O)O [Example 160, [4-(2-Pyridylaminomethyl)-2-phenylbenzoyl]methionine]
98 | CSCC[C@H](NC(=O)c1ccc(NCc2c[nH]cn2)cc1-c1ccccc1)C(=O)O [Example 167, [4-(1H-Imidazol-4-ylmethyl)amino-2-phenylbenzoyl]methionine Hydrochloride]
86 | CSCC[C@H](NC(=O)c1ccc(NC(=O)c2nccn2C)cc1-c1ccccc1)C(=O)O [Example 186, [4-(1H-1-Methylimidazol-2-ylcarboxyamino)-2-phenylbenzoyl]methionine]
68 | C[C@H](NC(=O)c1ccc(COc2cccnc2)cc1-c1ccccc1)C(=O)O [Example 187, [4-(3-Pyridyloxymethyl)-2-phenylbenzoyl]alanine]
4 | O=C(N[C@H]1CCOC1=O)c1ccc(NCc2cccnc2)cc1-c1ccccc1 [Example 190, [4-(3-Pyridylmethylamino)-2-phenylbenzoyl]homoserine Lactone]
43 | CSCC[C@H](NC(=O)c1ccc(NCc2cccnc2)cc1-c1ccccc1)C(N)=O [Example 196, [4-(3-Pyridylmethylamino)-2-phenylbenzoyl]methionineamide]
1 | CNC(=O)[C@H](CCSC)NC(=O)c1ccc(NCc2cccnc2)cc1-c1ccccc1 [Example 197, [4-(3-Pyridylmethylamino)-2-phenylbenzoyl]methioninemethylamide]
63 | COC(=O)[C@H](CCSC)NC(=O)c1ccc(NCc2cccnc2)cc1-c1ccccc1 [Example 201, [4-(3-Pyridylmethylamino)-2-phenylbenzoyl]methionine Methyl Ester]
98 | CSCC[C@H](NC(=O)c1ccc(COc2cccnc2)cc1-c1ccccc1C)C(=O)O [Example 204, [4-(3-Pyridyloxymethyl)-2-(2-methylphenyl)benzoyl]methionine]
98 | COc1ccccc1-c1cc(COc2cccnc2)ccc1C(=O)N[C@@H](CCSC)C(=O)O [Example 207, [4-(3-Pyridyloxymethyl)-2-(2-methoxyphenyl)benzoyl]methionine]
74 | COc1ccc(-c2cc(COc3cccnc3)ccc2C(=O)N[C@@H](CCSC)C(=O)O)cc1 [Example 209, [4-(3-Pyridyloxymethyl)-2-(4-methoxyphenyl)benzoyl]methionine]
5 | COC(=O)[C@H](CCSC)NC(=O)c1ccc(/C=C/c2cccnc2)cc1-c1ccccc1 [Example 210, {4-[2-(Pyrid-3-yl)ethenyl]-2-phenylbenzoyl}methionine Methyl Ester]
98 | CSCC[C@H](NC(=O)c1ccc(C=Cc2cccnc2)cc1-c1ccccc1)C(=O)O [Example 211, {4-[2-(Pyrid-3-yl)ethenyl]-2-phenylbenzoyl}methionine Sodium Salt]

Same assay, conditions: Inhibition of farnesyltransferase; compound at 1 × 10^−8 M (Table 4); read-out: % inhibition at 1 × 10^−8 M

inhibition at 0.01 µM [%] | Compound
98 | CSCC[C@@H](NC(=O)c1ccc(CNc2cccnc2)cc1-c1ccccc1C)C(=O)O (stereo in doubt) [Example 400, [4-(3-Pyridylaminomethyl)-2-(2-methylphenyl)benzoyl]methionine]

Same assay, conditions: read-out: % inhibition at 1 × 10^−6 M

Compound | inhibition at 1 µM [%]
O=C(N[C@@H](CCO)C(=O)O)c1ccc(NCc2cccnc2)cc1-c1ccccc1 [Example 191, Lithium 4-(3-Pyridylmethylamino)-2-phenylbenzoyl-L-homoserinate] | 28
CSCC[C@H](NC(=O)c1ccc(/C=C/c2cnccc2N(C)C)cc1-c1ccccc1)C(=O)O [Example 214, {4-[2-(4-Dimethylaminopyrid-3-yl)ethenyl]-2-phenylbenzoyl}methionine Sodium Salt] | 97
CSCC[C@H](NC(=O)c1ccc(/C=C/c2cncc(Br)c2)cc1-c1ccccc1)C(=O)O [Example 215, {4-[2-(5-Bromopyrid-3-yl)ethenyl]-2-phenylbenzoyl}methionine Sodium Salt] | 82
CSCC[C@H](NC(=O)c1ccc(/C=C/n2ccnc2)cc1-c1ccccc1)C(=O)O [Example 217, {4-[2-(1-H-Imidazole-1-yl)ethenyl]-2-phenylbenzoyl}methionine Sodium Salt] | 99

Same assay, conditions: read-out: % inhibition at 1 × 10^−7 M

Compound | inhibition at 0.1 µM [%]
CSCC[C@H](NC(=O)c1ccc(/C=C/c2cnc3ccccc3c2)cc1-c1ccccc1C)C(=O)O (stereo in doubt) [Example 487, N-[4-(2-Quinolin-3-ylethen-1-yl)-2-(2-methylphenyl)benzoyl]methionine Lithium Salt] | 81
Cc1ccccc1-c1cc(CCc2cnc3ccccc3c2)ccc1C(=O)N[C@@H](CC[S+](C)[O-])C(=O)O (stereo in doubt) [Example 490, N-[4-(2-Quinolin-3-ylethyl)-2-(2-methylphenyl)benzoyl]-2-amino-4-methylsulfinylbutanoic Acid Lithium Salt] | 70
CSCC[C@H](NC(=O)c1ccc(/C=C/c2cncc3ccccc23)cc1-c1ccccc1C)C(=O)O (stereo in doubt) [Example 491, N-[4-(2-Isoquinolin-4-ylethen-1-yl)-2-(2-methylphenyl)benzoyl]methionine Lithium Salt] | 94

Reference: patent US6693123B2 (University of Pittsburgh, priority 1995, dated 2004)
